Data: PubChem BioAssay (NCI)
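Grown in 96-well plates, cells were treated for 48 hours with each compound at five concentrations. Insufficient inhibition: endpoint recorded as highest concentration tested. TGI denotes the concentration required for complete inhibition of growth.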

Experiments:
Assay in all cases: NCI tumour cell line growth inhibition, 48 h
EKVX NSCLC = test system: EKVX NSCLC
RXF-631 renal = test system: RXF-631 renal
HOP-92 NSCLC = test system: HOP-92 NSCLC
SN12C renal = test system: SN12C renal
NCI-H23 lung = test system: NCI-H23 lung
SK-OV-3 ovarian = test system: SK-OV-3 ovarian
A549 NSCLC = test system: A549 NSCLC
DLD-1 colon = test system: DLD-1 colon
NCI-H460 lung = test system: NCI-H460 lung
MALME-3M melanoma = test system: MALME-3M melanoma
CAKI-1 renal = test system: CAKI-1 renal
SNB-75 CNS = test system: SNB-75 CNS
TK-10 renal = test system: TK-10 renal
HOP-62 NSCLC = test system: HOP-62 NSCLC
M14 melanoma = test system: M14 melanoma
LXFL 529 NSCLC = test system: LXFL 529 NSCLC
M19-MEL melanoma = test system: M19-MEL melanoma
OVCAR-5 ovarian = test system: OVCAR-5 ovarian
RPMI-8226 leukemia = test system: RPMI-8226 leukemia
UACC-62 melanoma = test system: UACC-62 melanoma
DMS 114 small cell lung = test system: DMS 114 small cell lung
HCT-15 colon = test system: HCT-15 colon
SK-MEL-28 melanoma = test system: SK-MEL-28 melanoma
XF 498 CNS = test system: XF 498 CNS
UO-31 renal = test system: UO-31 renal
NCI-H226 lung = test system: NCI-H226 lung
SNB-78 CNS = test system: SNB-78 CNS
LOX IMVI melanoma = test system: LOX IMVI melanoma
U251 CNS = test system: U251 CNS
OVCAR-3 ovarian = test system: OVCAR-3 ovarian
DMS 273 small cell lung = test system: DMS 273 small cell lung
SW-620 colon = test system: SW-620 colon
SK-MEL-2 melanoma = test system: SK-MEL-2 melanoma
SNB-19 CNS = test system: SNB-19 CNS
HOP-18 NSCLC = test system: HOP-18 NSCLC
KM20L2 colon = test system: KM20L2 colon
SF-268 CNS = test system: SF-268 CNS
NCI-H522 lung = test system: NCI-H522 lung
HCC-2998 colon = test system: HCC-2998 colon
RXF 393 renal = test system: RXF 393 renal
ACHN renal = test system: ACHN renal
OVCAR-8 ovarian = test system: OVCAR-8 ovarian
HCT-116 colon = test system: HCT-116 colon
SF-539 CNS = test system: SF-539 CNS
UACC-257 melanoma = test system: UACC-257 melanoma
SF-295 CNS = test system: SF-295 CNS
HT29 colon = test system: HT29 colon
A498 renal = test system: A498 renal
KM12 colon = test system: KM12 colon
COLO 205 colon = test system: COLO 205 colon
OVCAR-4 ovarian = test system: OVCAR-4 ovarian
IGROV1 ovarian = test system: IGROV1 ovarian
SK-MEL-5 melanoma = test system: SK-MEL-5 melanoma
HL-60(TB) leukemia = test system: HL-60(TB) leukemia
MOLT-4 leukemia = test system: MOLT-4 leukemia
786-0 renal = test system: 786-0 renal
SR leukemia = test system: SR leukemia
K-562 leukemia = test system: K-562 leukemia
CCRF-CEM leukemia = test system: CCRF-CEM leukemia

Measured: TGI

CCC1C(C#N)=C(O)NC(O)=C1C#N
> 100 µM: EKVX NSCLC | RXF-631 renal | HOP-92 NSCLC | SN12C renal | NCI-H23 lung | SK-OV-3 ovarian | A549 NSCLC | DLD-1 colon | NCI-H460 lung | MALME-3M melanoma | CAKI-1 renal | SNB-75 CNS | TK-10 renal | HOP-62 NSCLC | M14 melanoma | LXFL 529 NSCLC | M19-MEL melanoma | OVCAR-5 ovarian | RPMI-8226 leukemia | UACC-62 melanoma | DMS 114 small cell lung | HCT-15 colon | SK-MEL-28 melanoma | XF 498 CNS | UO-31 renal | NCI-H226 lung | SNB-78 CNS | LOX IMVI melanoma | U251 CNS | OVCAR-3 ovarian | DMS 273 small cell lung | SW-620 colon | SK-MEL-2 melanoma | SNB-19 CNS | HOP-18 NSCLC | KM20L2 colon | SF-268 CNS | NCI-H522 lung | HCC-2998 colon | RXF 393 renal | ACHN renal | OVCAR-8 ovarian | HCT-116 colon | SF-539 CNS | UACC-257 melanoma | SF-295 CNS | HT29 colon | A498 renal | KM12 colon | COLO 205 colon | OVCAR-4 ovarian | IGROV1 ovarian | SK-MEL-5 melanoma

COc1ccc2c3c([nH]c(=O)c2c1C(=O)O)-c1ccccc1CC3
> 100 µM: EKVX NSCLC | RXF-631 renal | HOP-92 NSCLC | SN12C renal | HL-60(TB) leukemia | NCI-H23 lung | SK-OV-3 ovarian | A549 NSCLC | DLD-1 colon | NCI-H460 lung | MALME-3M melanoma | CAKI-1 renal | SNB-75 CNS | TK-10 renal | HOP-62 NSCLC | M14 melanoma | LXFL 529 NSCLC | MOLT-4 leukemia | 786-0 renal | OVCAR-5 ovarian | RPMI-8226 leukemia | DMS 114 small cell lung | SR leukemia | HCT-15 colon | SK-MEL-28 melanoma | XF 498 CNS | UO-31 renal | NCI-H226 lung | SNB-78 CNS | LOX IMVI melanoma | U251 CNS | OVCAR-3 ovarian | DMS 273 small cell lung | SW-620 colon | SK-MEL-2 melanoma | SNB-19 CNS | KM20L2 colon | SF-268 CNS | NCI-H522 lung | HCC-2998 colon | K-562 leukemia | RXF 393 renal | ACHN renal | HCT-116 colon | SF-539 CNS | SF-295 CNS | HT29 colon | A498 renal | KM12 colon | COLO 205 colon | CCRF-CEM leukemia | OVCAR-4 ovarian | IGROV1 ovarian | SK-MEL-5 melanoma
